This is an account of results in patent publication US7495104B2, “Quinoline or quinazoline derivatives inhibiting auto-phosphorylation of fibroblast growth factor receptors” (Kirin Beer Kabushiki Kaisha, priority 2001, dated 2009).

Counter-ions that a name gives are not always drawn. Where only a bound is given, the exact number is not on record here.

Sequence of Bek (P21802 431-767 limits assumed): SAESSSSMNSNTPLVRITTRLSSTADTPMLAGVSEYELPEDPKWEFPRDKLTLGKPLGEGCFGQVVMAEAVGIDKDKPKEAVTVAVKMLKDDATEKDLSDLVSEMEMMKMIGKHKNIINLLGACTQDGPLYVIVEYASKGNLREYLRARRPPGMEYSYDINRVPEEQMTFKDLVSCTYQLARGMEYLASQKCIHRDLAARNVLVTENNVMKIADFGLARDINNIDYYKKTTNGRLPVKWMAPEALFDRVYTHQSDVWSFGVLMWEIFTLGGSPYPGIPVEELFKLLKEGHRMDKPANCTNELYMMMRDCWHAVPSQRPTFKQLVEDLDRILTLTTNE

The target in this assay is Bek (Homo sapiens, UniProt P21802). In words: Inhibitory activity against Bek-autophosphorylation using ELISA method in OCUM-2MD3 cells. As to conditions: 1 hr with compound, read-out: IC50 (concentration necessary for inhibiting 50% of Bek-phosphorylation). The assay is classed as cell-based. The method, boiled down:
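OCUM-2MD3 human scirrhous gastric cancer cells in 0.1% FCS were exposed to compound for 1 hr at 37° C, then lysed. Phospho-tyrosine proteins were captured with anti-phosphotyrosine antibody, probed with anti-Bek antibody and peroxidase read-out (A450). Positive control (1000 nM) set 0%, untreated 100%; IC50 from multi-level dilutions.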
As for `COc1cc2c(Oc3ccc(Nc4ccc(C(C)(C)C)cc4)cc3)ccnc2cc1OCCCN1CCCCC1` [Compound 34, (4-Tert-butylphenyl)-{4-[6-methoxy-7-(3-piperidin-1-ylpropoxy)-quinolin-4-yloxy]phenyl}amine], the IC50 stood at 219 nM.
The same measure for `COc1cc2c(Oc3ccc(NC(=O)NCCC(C)(C)C)cc3)ccnc2cc1OCCN(CCO)C(C)C` [Compound 370, 1-(3,3-Dimethyl-butyl)-3-[4-(7-{2-[(2-hydroxy-ethyl)-isopropyl-amino]-ethoxy}-6-methoxy-quinolin-4-yloxy)-phenyl]-urea]: 130 nM; for `COc1cc2c(Oc3ccc(NC(=O)NCCC(C)(C)C)cc3)ccnc2cc1OCCN1CCN(C)CC1` [Compound 113, 1-(3,3-Dimethyl-butyl)-3-(4-{6-methoxy-7-[2-(4-methyl-piperazin-1-yl)-ethoxy]-quinolin-4-yloxy}-phenyl)-urea hydrochloride]: 10 nM.
Next, `COc1cc2c(Oc3ccc(NC(=O)NCCC(C)(C)C)c(F)c3)ccnc2cc1OCCN1CCC(CO)CC1` [Compound 300, 1-(3,3-Dimethyl-butyl)-3-(2-fluoro-4-{7-[2-(4-hydroxymethyl-piperidin-1-yl)-ethoxy]-6-methoxy-quinolin-4-yloxy}-phenyl)-urea]: 22.7 nM.
Next, `COc1cc2c(Oc3ccc(Nc4ccc(C(C)(C)C)cc4)cc3)ccnc2cc1OCCCCN1CCCCC1` [Compound 36, (4-Tert-butylphenyl)-{4-[6-methoxy-7-(4-piperidin-1-ylbutoxy)-quinolin-4-yloxy]phenyl}amine]: 247 nM.
`COc1cc2nccc(Oc3ccc(Nc4ccc(F)cc4)cc3)c2cc1OC` [Compound 4, [4-(6,7-Dimethoxyquinolin-4-yloxy)phenyl]-(4-fluorophenyl)amine]: the IC50 worked out at 3730 nM.
The same measure for `COc1cc2nccc(Oc3ccc(NC(=O)NC4CC(C)CC(C)(C)C4)c(F)c3)c2cc1OC` (centres unmarked) [Compound 106, 1-[4-(6,7-Dimethoxy-quinolin-4-yloxy)-2-fluoro-phenyl]-3-(3,3,5-trimethyl-cyclohexyl)-urea]: 19.7 nM; for `COc1cc2c(Oc3ccc(Nc4ccc(C(C)(C)C)cc4)cc3)ccnc2cc1OCCCN1CCOCC1` [Compound 24, (4-Tert-butylphenyl)-{4-[6-methoxy-7-(3-morpholin-4-ylpropoxy)quinolin-4-yloxy]phenyl}amine]: 183 nM.
The same measure for `COc1cc2c(Oc3ccc(Nc4ccc(C(C)(C)C)cc4)cc3)ccnc2cc1OC[C@@H](O)CN1CCOCC1` [Compound 71, (s)-1-{4-[4-(4-Tert-butylphenylamino)phenoxy]-6-methoxyquinolin-7-yloxy}-3-morpholin-4-ylpropan-2-ol]: 61.1 nM.
The same measure for `COc1cc2c(Oc3ccc(NC(=O)NCCC(C)(C)C)c(Cl)c3)ccnc2cc1OCCN1C(=O)c2ccccc2C1=O` [Compound 173, 1-(2-Chloro-4-{7-[2-(1,3-dioxo-1,3-dihydro-isoindol-2-yl)-ethoxy]-6-methoxy-quinolin-4-yloxy}-phenyl)-3-(3,3-dimethyl-butyl)-urea]: 153 nM; for `CCCN(CCO)CCOc1cc2nccc(Oc3ccc(Nc4ccc(C(C)(C)C)cc4)cc3)c2cc1OC` [Compound 366, 2-[(2-{4-[4-(4-Tert-butyl-phenylamino)-phenoxy]-6-methoxy-quinolin-7-yloxy}-ethyl)-propyl-amino]-ethanol]: 257 nM; for `COc1cc2c(Oc3ccc(NC(=O)NCCC(C)(C)C)c(Cl)c3)ccnc2cc1OCCN1CCC(CCO)CC1` [Compound 292, 1-[2-Chloro-4-(7-{2-[4-(2-hydroxy-ethyl)-piperidin-1-yl]-ethoxy}-6-methoxy-quinolin-4-yloxy)-phenyl]-3-(3,3-dimethyl-butyl)-urea]: 49.6 nM.
For `COc1cc2c(Oc3ccc(NC(=O)NCCC(C)(C)C)cc3F)ccnc2cc1OCCN1CC(C)OC(C)C1` (centres unmarked) [Compound 128, 1-(3,3-Dimethyl-butyl)-3-(4-{7-[2-(2,6-dimethyl-morpholin-4-yl)-ethoxy]-6-methoxy-quinolin-4-yloxy}-3-fluoro-phenyl)-urea], the IC50 was less than 10 nM.
In the case of `COc1cc2c(Oc3ccc(NC(=O)NCCC(C)(C)C)c(Cl)c3)ccnc2cc1OCCCN1CCCC1` [Compound 179, 1-{2-Chloro-4-[6-methoxy-7-(3-pyrrolidin-1-yl-propoxy)-quinolin-4-yloxy]-phenyl}-3-(3,3-dimethyl-butyl)-urea], the IC50 is 17.3 nM.
Next, `COc1cc2c(Oc3ccc(Nc4ccc(C(C)(C)C)cc4)c(F)c3)ccnc2cc1OCCN1CCC(CO)CC1` [Compound 288, [1-(2-{4-[4-(4-Tert-butyl-phenylamino)-3-fluoro-phenoxy]-6-methoxy-quinolin-7-yloxy}-ethyl)-piperidin-4-yl]-methanol]: 110 nM.
Consider `COc1cc2c(Oc3ccc(NC(=O)NCCC(C)(C)C)cc3Cl)ccnc2cc1OCCN1CC(C)OC(C)C1` (centres unmarked) [Compound 127, 1-(3-Chloro-4-{7-[2-(2,6-dimethyl-morpholin-4-yl)-ethoxy]-6-methoxy-quinolin-4-yloxy}-phenyl)-3-(3,3-dimethyl-butyl)-urea], for which the IC50 was found to be 9.4 nM.
The same measure for `COc1cc2c(Oc3ccc(Nc4ccc(C(C)(C)C)cc4)cc3)ccnc2cc1OCCC(N)=O` [Compound 26, 3-{4-[4-(4-Tert-butylphenylamino)phenoxy]-6-methoxyquinolin-7-yloxy}propionamide]: 318 nM; for `COc1cc2nccc(Oc3ccc(Nc4ccc(C(C)(C)C)cc4)cc3)c2cc1OCCN1CCC(CO)CC1` [Compound 355, [1-(2-{4-[4-(4-Tert-butyl-phenylamino)-phenoxy]-7-methoxy-quinolin-6-yloxy}-ethyl)-piperidin-4-yl]-methanol]: 403 nM.
As to `COc1cc2c(Oc3ccc(Nc4ccc(C(C)(C)C)cc4)cc3Cl)ccnc2cc1OCCCN1CCC(CO)CC1` [Compound 310, [1-(3-{4-[4-(4-Tert-butyl-phenylamino)-2-chloro-phenoxy]-6-methoxy-quinolin-7-yloxy}-propyl)-piperidin-4-yl]-methanol], the IC50 amounted to 184 nM.
Next, `COc1cc2c(Oc3ccc(NC(=O)NCCC(C)(C)C)cc3Cl)ccnc2cc1OCCCN1CCC(O)CC1` [Compound 338, 1-(3-Chloro-4-{7-[3-(4-hydroxy-piperidin-1-yl)-propoxy]-6-methoxy-quinolin-4-yloxy}-phenyl)-3-(3,3-dimethyl-butyl)-urea]: 16.6 nM; `COc1cc2c(Oc3ccc(Nc4ccc(C(C)(C)C)cc4)cc3)ccnc2cc1OCCN(CCO)Cc1ccccc1` [Compound 365, 2-[Benzyl-(2-{4-[4-(4-tert-butyl-phenylamino)-phenoxy]-6-methoxy-quinolin-7-yloxy}-ethyl)-amino]-ethanol]: 7130 nM; `COc1cc2c(Oc3ccc(Nc4ccc(C(C)(C)C)cc4)cc3Cl)ccnc2cc1OCCN1CCC(CCO)CC1` [Compound 313, 2-[1-(2-{4-[4-(4-Tert-butyl-phenylamino)-2-chloro-phenoxy]-6-methoxy-quinolin-7-yloxy}-ethyl)-piperidin-4-yl]-ethanol]: 367 nM.
Next, `COc1cc2c(Oc3ccc(NC(=O)NCCC(C)(C)C)c(Cl)c3)ccnc2cc1OCCCN1CCC[C@H]1CO` [Compound 208, 1-(2-Chloro-4-{7-[3-(2-hydroxymethyl-pyrrolidin-1-yl)-propoxy]-6-methoxy-quinolin-4-yloxy}-phenyl)-3-(3,3-dimethyl-butyl)-urea]: 27 nM.
